Measured values published in patent US6627732B1, “Glutathione derivatives and their dosage forms” (Teijin Limited, priority 1998, dated 2003).

Tests used:
[1] = Stability in human plasma; type: in vitro ADME; details: heparinized plasma, 250-323 μg/ml
From the text: Rat, rabbit, and human plasma
Heparinized plasma: 30 to 40 parts

swine liver esterase = assay: Decomposition by swine liver esterase with and without fat emulsion (Example 22); type: in vitro ADME; details: for Decomposition rate constant in the absence of the fat emulsion: alcohol solution with physiological saline; for Decomposition rate constant in the presence of the fat emulsion: fat emulsion added at 15 (v/v)%
Procedure: The glutathione derivative combined with a fat emulsion was incubated with swine liver esterase to compare the resistance to decomposition.
Thereupon, the concentration of the glutathione derivatives of Comparative Examples 1 and 2 in the fat emulsion were each adjusted to 1 mg/ml.
After incubation for a fixed time in a similar manner to that in Example 19, the content of the glutathione derivative was quantitated by HPLC. As the control experiment, an alcohol solution of the glutathione derivative of Example 4, Comparative Example 1 or 2 was added to the esterase reaction mixture together with physiological saline for adjustment of the total volume, and incubated similarly and analyzed by HPLC.
(3) Since a linear disappearance curve was observed as in Example 19, each decomposition rate constant was determined and was compared, which was summarized in Table 6.

[2] = test system: human leukemia cell HL-60; assay: HL-60 cell differentiation induction, NBT reducing activity (Example 20); type: cell-based; details: 4 days
Procedure: Using the differentiation induction effect on the granulocytes or monocytes/macrophages obtained by culturing the human leukemia cell HL-60 in the presence of 9-cys-retinoic acid (9-cis-RA) or activated vitamin D3 (1α, 25(OH)2D3), and in the coexistence of the glutathione derivatives of Examples and the Comparative Examples of the present invention, the growth-promotion activity was tested.
(1) HL-60 cells used were purchased from the cell bank (Japanese Cancer Research Resource Bank, Cell No. JCRBOO85). In accordance with a standard method, the lyophilized cell stocks that were thawed before the start of the experiment and subcultured were used.
Subculturing was carried out by centrifuging (1500 rpm, 5 minutes) the cells in suspension culture and recovering and by diluting it in a fresh culture liquid at a concentration of about 1/100 (1 to 2×10^4 cells/ml). As the culture liquid, an RPMI 1640 medium containing 10% fetal bovine serum was used.
(2) The cells subcultured in (1) were recovered by centrifugation (1500 rpm, 5 minutes), and were dispersed in the culture liquid at 2×10^4 cells/ml, which were plated on a 24-well culture plate at 1 ml/well. To this system were added the glutathione derivatives of Example 4, Example 11, Comparative Example 1 and Comparative Example 2 and a differentiation induction substance (9-cis-RA or 1α, 25(OH)2D3). Thus, 1 μl per well each of an ethanol solution of the differentiation induction substances 9-cis-RA and 1α, 25(OH)2D3 were added at 5×10^−6 M and 2×10^−6 M, respectively. Then, 1 μl per well each of ethanol solutions of the glutathione derivatives at 1×10^−4 M to 1×10^−2 M was added. As the solvent treatment for the control, 1 μl of ethanol per well was added in stead of the glutathione derivative, and as the single treatment of glutathione derivatives, 1 μl of ethanol per well was added in stead of the differentiation induction substance. After culturing at 37° C. and 5% CO2 for 4 days, the cells were recovered by centrifugation (1500 rpm, 5 minutes).
(3) The measurement of a nitroblue tetrazolium (NBT) reducing activity which is often used for the evaluation of differentiation induction effects on monocytes/macrophages or granulocytic cells was carried out according to the following procedure. Thus, the cells recovered by centrifugation in (2) were suspended in a fresh culture medium, and then NBT was added thereto to […] and 12-O-tetradecanoyl phorbol-13-acetate to 100 nM. After incubating at 37° C. for 25 minutes, cytospin samples were prepared. After air drying, the cells were subjected to Kernechtrot stain, and 500 cells per sample were examined under alight microscope to determine the ratio of the NBT reduction activity-positive cells.
(4) The result of the experiment in which glutathione derivatives at 10^−7 to 10^−5 M were treated together with a differentiation induction substances is shown in Table 4. For a single treatment of each glutathione derivative up to 10^−5 M, no increases in the NBT reducing activity was observed. In a combined treatment of a glutathione derivative and a differentiation induction substance, an enhanced ratio of the NBT reduction activity-positive cells relative to the single treatment with a differentiation induction substance was observed depending on the concentration of the glutathione derivative. There were no major differences observed in the strength of effects between the glutathione derivatives of Examples 4 and 11 and Comparative Examples 1, and 2.

rabbit liver esterase = assay: Decomposition of glutathione derivatives by rabbit liver esterase (physiological stability); type: in vitro ADME; details: BSA/D-PBS pH 7.4, 196-244 μg/ml
Procedure: (1) Bovine serum albumin (hereinafter referred to as BSA), Dulbecco's phosphate buffered saline (hereinafter referred to as D-PBS), swine liver esterase, and rabbit liver esterase were purchased from Sigma, 6-week old male SD rats were purchased from Nippon SLC, and 12-week old or older male Japanese white rabbits were purchased from Ichikawaya. On the day of the incubation experiment described below, blood was drawn from the animals in the presence of heparin, and plasma was separated therefrom for use. Human plasma was obtained from normal healthy males after obtaining their consent.
(2) The glutathione derivatives described in the Examples and Comparative Examples of the present invention were incubated for a fixed time in an enzyme solution having the following composition. Acetonitrile was added to the reaction mixture to inactivate the enzyme thereby to stop the reaction. The concentration of the glutathione derivatives in the deproteinized supernatant was measured by HPLC. For each time point of the esterase enzyme experiment, the mean values from two measurement or more were determined, and for the rats and rabbits the mean values of plasma samples from three individuals were determined. For some of the experiment data, changes with time of percentages relative to initial concentration of the glutathione derivative are shown in FIGS. 2 to 4.
Swine liver esterase and rabbit liver esterase experiment
30 mg-BSA/ml-D-PBS (pH 7.4): 36 to 45 parts
Swine or rabbit liver esterase/D-PBS: 4-5 parts
10 mg-glutathione derivative/ml-ethanol: one part (the final concentration in the reaction mixture is 196-244 μg/ml)

[3] = compound 10^−5 M, Solvent control (EtOH), no differentiation induction substance
[4] = compound 10^−5 M, with 1α,25(OH)2D3 (2 × 10^−9 M)
[5] = compound 10^−5 M, with 9-cis-RA (5 × 10^−9 M)
[6] = compound 10^−6 M, Solvent control (EtOH), no differentiation induction substance
[7] = compound 10^−6 M, with 1α,25(OH)2D3 (2 × 10^−9 M)
[8] = compound 10^−6 M, with 9-cis-RA (5 × 10^−9 M)
[9] = compound 10^−7 M, Solvent control (EtOH), no differentiation induction substance
[10] = compound 10^−7 M, with 1α,25(OH)2D3 (2 × 10^−9 M)
[11] = compound 10^−7 M, with 9-cis-RA (5 × 10^−9 M)

| SMILES | Half life in human plasma [1] | Ratio of decomposition rate constant (in the presence of the fat emulsion/physiological saline) (swine liver esterase) | Decomposition rate constant in the absence of the fat emulsion (swine liver esterase) | Decomposition rate constant in the presence of the fat emulsion (swine liver esterase) | Ratio of NBT reduction activity-positive cells [2, 3] | Ratio of NBT reduction activity-positive cells [2, 4] | Ratio of NBT reduction activity-positive cells [2, 5] | Ratio of NBT reduction activity-positive cells [2, 6] | Ratio of NBT reduction activity-positive cells [2, 7] | Ratio of NBT reduction activity-positive cells [2, 8] | Ratio of NBT reduction activity-positive cells [2, 9] | Ratio of NBT reduction activity-positive cells [2, 10] | Ratio of NBT reduction activity-positive cells [2, 11] | Decomposition rate constant by rabbit liver esterase (rabbit liver esterase) |
| --- | --- | --- | --- | --- | --- | --- | --- | --- | --- | --- | --- | --- | --- | --- |
| CCCCCCCCCCCCCCCCOC(=O)[C@@H](N)CCC(=O)N[C@@H](CSCc1ccccc1)C(=O)N[C@@H](C(=O)OCC)c1ccccc1.Cl [Example 4, Glu(Cys(Bzl)-D-Phg-OEt)-O(Hexadecyl)hydrochloride] | 184.77 h | 0.185 | 1.100 × 10^−4 /unit/min | 2.033 × 10^−5 /unit/min | 0.2% | 31.3% | 18.0% | 0.2% | 10.3% | 10.4% | 0.2% | 5.7% | 6.7% | 0.836 10^−4/unit/min |
| CCOC(=O)[C@@H](N)CCC(=O)N[C@@H](CSCc1ccccc1)C(=O)N[C@@H](C(=O)OCC)c1ccccc1.Cl [Comparative Example 1, Glu(Cys(Bzl)-D-Phg-O(Et))-O(Et)hydrochloride, reference compound] | 10.7 h | 0.609 | 1.206 × 10^−2 /unit/min | 7.343 × 10^−3 /unit/min | 0.4% | 13.0% | 18.8% | 0.2% | 7.6% | 10.1% | 0.2% | 5.4% | 6.3% | – |
| CCCCCCCCOC(=O)[C@H](NC(=O)[C@H](CSCc1ccccc1)NC(=O)CC[C@H](N)C(=O)OCC)c1ccccc1.Cl [Comparative Example 2, Glu(Cys(Bzl)-D-Phg-O(Octyl))-O(Et)hydrochloride, reference compound] | 10.3 h | 0.454 | 3.638 × 10^−2 /unit/min | 1.650 × 10^−2 /unit/min | 0.6% | 18.2% | 33.2% | 0.4% | 9.3% | 15.2% | 0.2% | 4.6% | 7.4% | 267 10^−4/unit/min |
